Assay [1] has as its system ANIT-induced cholestatic liver injury under SIRT1 inhibition. The assay is described as follows: Effect of SIRT1 inhibition (EX527) on celastrol activity in ANIT model (Example 3). The class given is in vivo, C57BL/6 mice. How it is done:
A total of 24 male C57BL/6 mice were divided into four groups: blank group (n=6); model group (n=6); treatment group (n=6); and EX527 group (n=6).
Celastrol was dissolved in a solvent to obtain a celastrol solution at a concentration of 2 mg/mL, wherein the solvent consisted of 1% DMSO, 2% Tween 80, and 97% water (v:v:v). For intragastrical administration, the dosage of celastrol was 10 mg/kg·d. ANIT was dissolved in corn oil to obtain a corn oil solution of ANIT at a concentration of 15 mg/mL, and the dosage of ANIT for intragastrical administration was 75 mg/kg. EX527 was dissolved in corn oil to obtain a corn oil solution of EX527 at a concentration of 2 mg/mL, and the dosage of EX527 for intraperitoneal injection was 10 mg/kg·d.
The EX527 group was simultaneously administrated with the celastrol solution and the EX527 corn oil solution for 5 consecutive days. The treatment group was administrated with the celastrol solution and an equal dosage of corn oil for 5 consecutive days. At the same time, the blank group and the model group were administrated with equal dosages of solvent (1% DMSO, 2% Tween 80 and 97% water (v:v:v)) and corn oil, and the solvent was administrated for 5 consecutive days.
On the 3rd day of administration, ANIT model was established. 4 Hours after administration, the mice in the model group, the treatment group and the EX527 group were respectively intraperitoneally injected with the ANIT corn oil solution at a dosage of 75 mg/kg for single administration to induce cholestatic liver injury, and the blank group was fed with an equal dosage of corn oil. After the model was established on the 3rd day of administration, the treatment group was continuously administrated with celastrol, the EX527 group was continuously administrated with celastrol and EX527, and the blank group and the model group were continuously administrated with the same dosage of solvent. 48 Hours after administration with ANIT, the mice were sacrificed by CO2 anesthesia, and mouse liver samples and plasma samples were taken. The eyeballs of the mice were taken for blood collection. The plasma samples were placed on ice for 1-2 hours, centrifuged at 4000 g for 5 minutes at 4° C., and the supernatants of the plasma samples were taken to determine plasma biochemical indicators, the levels of ALT, AST and ALP.
At the same time, plasma samples were prepared: 10 μL of plasma sample was taken, mixed well with 190 μL of 67% acetonitrile (containing 5 μM internal standard chlorpropamide), centrifuged at 18000 g for 20 minutes at 4° C., and the supernatant was taken for sample injection. The liquid chromatography conditions were as follows: the injection volume was 5 μL; the temperature of column was 45° C.; the flow rate of mobile phase was 0.3 mL/min; the gradient elution was that acetonitrile concentration changed from 2% to 98% during 16 minutes of operation, wherein the mobile phase (water/acetonitrile solution) contained 0.01% formic acid. The elution procedure was as follows: during 0-12th minute, the acetonitrile concentration changed from 2% to 98% at a constant rate; during 12-14th minute, the acetonitrile concentration was maintained at 98%; during 14-14.1th minute, the acetonitrile concentration changed from 98% to 2%; during 14.1-16th minute, the acetonitrile concentration was maintained at 2%. Mass spectrometry conditions were as follows: the temperature of dry gas was 350° C., the pressure of nebulizer was 35 psi, and the voltage of capillary was 3.5 kV.
Part of the collected mouse liver tissue was fixed overnight in formalin and tissue sections were stained with hematoxylin and eosin (H&E).

Assay [2] concerns TAA-induced cholestatic liver injury under SIRT1 inhibition. The assay is described as follows: Effect of SIRT1 inhibition (EX527) on celastrol activity in TAA model (Example 4). It is filed as in vivo, C57BL/6 mice. The following applies: TAA model. The procedure:
A total of 24 male C57BL/6 mice were divided into four groups: blank group (n=6);
model group (n=6); treatment group (n=6); EX527 group (n=6).
Celastrol was dissolved in a solvent to obtain a solution of celastrol at a concentration of 2 mg/mL, wherein the solvent consisted of 1% DMSO, 2% Tween, and 97% water (v:v:v). For intragastrical administration, the dosage of celastrol was 10 mg/kg·d. TAA was dissolved in 0.9% NaCl solution to prepare a NaCl solution of TAA at a concentration of 60 mg/mL, and the dosage of TAA for intraperitoneal administration was 300 mg/kg. EX527 was dissolved in corn oil to prepare a corn oil solution of EX527 at a concentration of 2 mg/mL, and the dosage of EX527 for intraperitoneal administration was 10 mg/kg. d.
The EX527 group was simultaneously administered with the celastrol solution and the EX527 corn oil solution for 4 consecutive days. The treatment group was administrated with the celastrol solution and an equal dosage of corn oil for 4 consecutive days. At the same time, the blank group and the model group were administrated with equal dosages of solvent (1% DMSO, 2% Tween 80 and 97% water (v:v:v)) and corn oil, and the solvent was administrated for 4 consecutive days.
On the 4th day, the establishment of TAA model was performed. 1 Hour after administration, the mice in the model group, the treatment group and the EX527 group were intraperitoneally injected with TAA at a dosage of 300 mg/kg to induce cholestatic liver injury. 24 Hours after administration with TAA, the mice were sacrificed by CO2 anesthesia, and plasma samples and liver samples were collected. The eyeballs of the mice were taken for blood collection. The plasma samples were placed on ice for 1-2 hours, centrifuged at 4000 g for 5 minutes at 4° C., and the supernatants of plasma samples were taken to determine the plasma biochemical indicators, the levels of ALT, AST, and ALP.
At the same time, plasma samples were prepared: 10 μL of plasma sample was mixed with 190 μL of 67% acetonitrile (containing 5 μM internal standard chlorpropamide), centrifuged at 18000 g for 20 minutes at 4° C., and the supernatant was taken for sample injection. The liquid chromatography conditions were as follows: the volume of injection was 5 μL; the temperature of column was 45° C.; the flow rate of mobile phase was 0.3 mL/min; the gradient elution was that acetonitrile concentration changed from 2% to 98% during 16 minutes of operation, wherein the mobile phase (water/acetonitrile solution) contained 0.01% formic acid. The elution procedure was as follows: during 0-12th minute, the acetonitrile concentration changed from 2% to 98% at a constant rate; during 12-14th minute, the acetonitrile concentration was maintained at 98%; during 14-14.1th minute, the acetonitrile concentration changed from 98% to 2%; during 14.1-16th minute, the acetonitrile concentration was maintained at 2%. Mass spectrometry conditions were as follows: the temperature of dry gas was 350° C., the pressure of nebulizer was 35 psi, and the voltage of capillary was 3.5 kV.
Part of the collected mouse liver tissue was fixed overnight in formalin, and tissue sections were stained with hematoxylin and eosin (H&E).

Where [3] appears, read: EX527 group: celastrol 10 mg/kg·d + EX527 10 mg/kg·d i.p., P<0.05, FIG. 3E.
Where [4] appears, read: EX527 group: celastrol 10 mg/kg·d + EX527 10 mg/kg·d i.p., P<0.001, FIG. 4E.

Data on one molecule can be found in US11607417B2, “Uses of celastrol in preventing and/or treating cholestatic liver disease and liver fibrosis” (KUNMING INSTITUTE OF BOTANY, THE CHINESE ACADEMY OF SCIENCES, priority 2017, dated 2023).

`NC(=O)C1CCCc2c1[nH]c1ccc(Cl)cc21` (centres unmarked) [EX527, reference compound]: the “Levels of bile acids in plasma vs treatment group” value is on record as “significantly higher” in assay [1] (CA, TβMCA/TαMCA and THDCA/TUDCA, EX527 group: celastrol + EX527 10 mg/kg·d i.p., P<0.05, FIG. 3F); “significantly higher” in assay [2] (DCA, TβMCA/TαMCA, TCA and TDCA, EX527 group: celastrol + EX527 10 mg/kg·d i.p., P<0.05, FIG. 4F). Also, the “H&E staining of mouse liver tissue” value in assay [1] (EX527 group: celastrol 10 mg/kg·d + EX527 10 mg/kg·d i.p., FIG. 3D) is “a severe inflammatory infiltration and a periportal hemorrhage also occurred”; in assay [2] (EX527 group: celastrol 10 mg/kg·d + EX527 10 mg/kg·d i.p., FIG. 4D), “a severe necrosis of liver cells also occurred”. The “ALT level in plasma vs treatment group” value in assay [1] (setting [3]) and in assay [2] (setting [4]) was “significantly higher” throughout. The “AST level in plasma vs treatment group” value in assay [1] (setting [3]) and in assay [2] (setting [4]) was “significantly higher” each time.
